# Experimental data published in patent publication US5827837A, “Polyanion anti-inflammatory agents” (priority 1996, dated 1998).
# Legend:
# [1] = target: T1, E-selectin-lg fusion protein (Homo sapiens, UniProt P16581); experiment: LS 180 colon cancer cell adhesion to immobilized E-selectin-Ig; type: cell-based
# T1 construct: Each selectin-lg contains the lectin domain, epidermal growth factor domain, and one (L-selectin-lg), two (P-selectin-lg) or six (E-selectin-lg) complement regulatory repeats; made in house
# T1 sequence (P16581 with tags, fused parts or gaps limits assumed): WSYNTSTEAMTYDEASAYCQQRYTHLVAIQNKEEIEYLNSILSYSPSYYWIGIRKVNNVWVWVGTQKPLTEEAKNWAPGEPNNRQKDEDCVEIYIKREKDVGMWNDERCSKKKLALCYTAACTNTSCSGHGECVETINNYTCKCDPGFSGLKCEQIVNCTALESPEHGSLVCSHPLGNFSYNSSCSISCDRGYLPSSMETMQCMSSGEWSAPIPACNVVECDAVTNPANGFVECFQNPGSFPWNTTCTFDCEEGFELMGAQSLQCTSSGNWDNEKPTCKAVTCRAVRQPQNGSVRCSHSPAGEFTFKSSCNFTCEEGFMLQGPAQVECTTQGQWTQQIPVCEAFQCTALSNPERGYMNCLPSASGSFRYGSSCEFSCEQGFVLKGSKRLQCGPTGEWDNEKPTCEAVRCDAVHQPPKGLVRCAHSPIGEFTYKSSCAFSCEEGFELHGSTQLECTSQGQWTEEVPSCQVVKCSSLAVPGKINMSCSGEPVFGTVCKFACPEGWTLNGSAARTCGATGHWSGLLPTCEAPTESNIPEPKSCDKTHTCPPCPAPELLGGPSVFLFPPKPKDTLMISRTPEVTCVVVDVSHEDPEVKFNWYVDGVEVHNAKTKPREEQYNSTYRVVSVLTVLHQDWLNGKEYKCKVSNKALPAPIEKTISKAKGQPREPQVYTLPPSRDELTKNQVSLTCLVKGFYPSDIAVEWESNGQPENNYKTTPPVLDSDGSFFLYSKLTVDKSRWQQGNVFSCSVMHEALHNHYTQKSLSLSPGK
# Description: Cell adhesion assays on immobilized selectin-lg were performed essentially as described (Nelson, R. M., et al., J. Clin. Invest., 91:1157, 1993; Nelson, R. M., et al., Symposia on Quant. Biol., 57:271, 1992). Briefly, Nunclon Terasaki Microwell plates were coated overnight with 5 μl/well of a 5 μg/ml solution of protein A (Chemicon, Temecula, Calif.) in 50 mM carbonate buffer, pH 9.5. Protein-A-coated plates were washed with Dulbecco's phosphate buffered saline (PBS), incubated for 1 hour with L-, P-, or E-selectin-lg fusion proteins in PBS (5-20 μg/ml), washed again, and blocked with PBS containing 1% human serum albumin (HSA). […] After washing to remove unbound cells, adherent cells were fixed with glutaraldehyde (2.5% in PBS) and counted. Symbols and error bars represent mean number of adherent cells/mm^2 ±s.e.m., counted in quadruplicate wells in a single experiment representative of three. No LS 180 cell adhesion was detected on plates coated with protein A alone, or on plates coated with protein A-captured CD8-lg fusion protein.
# LS 180 cells (ATCC, Rockville, Md.) were added to cell culture wells containing protein A-captured selectin-lg fusion proteins and incubated for 30 min at 4° C. to allow adhesion. The plates were washed to remove unbound cells and adherent cells were counted microscopically. […]
# L-selectin (L-COS) = experiment: LS 180 cell adhesion to COS cells transfected with full length L-selectin (L-COS); type: cell-based; settings: 0.5 mM, 2 experiments
# Description: (§1) The effect of inositols on selectin-dependent cell adhesion was assessed using several in vitro assay systems. In the first, a colon cancer cell line, LS 180, was chosen because it binds to all three selecting.
# (§2) COS-1 cells were transfected as described (Seed, B., et al., Proc. Natl. Acad. Sci., U.S.A., 84:3365, 1987; Aruffo, A., Current Protocols In Molecular Biology, eds. supra, 1992) with pCDM7/pCDM8 expression vectors containing the full-length E-, P- and L-selectin cDNA. Transfected COS-1 cells were seeded on gelatin coated coverslips.
# P-selectin (P-COS) = experiment: LS 180 cell adhesion to COS cells transfected with full length P-selectin (P-COS); type: cell-based; settings: 0.5 mM, 2 experiments
# Description: as §1, §2
# E-selectin (E-COS) = experiment: LS 180 cell adhesion to COS cells transfected with full length E-selectin (E-COS); type: cell-based; settings: 0.5 mM
# Description: as §1, §2
# [2] = tested on: Human umbilical vein endothelial cells (HUVEC); experiment: PMN adhesion to TNF-activated endothelial monolayers (HUVEC); type: cell-based; settings: InsP6 0.5 mM
# Description: Human umbilical vein endothelial cells (HUVEC, Clonetics Corp., San Diego, Calif.) were grown to confluence with 2.2 cm diameter circles made on glass slides with a grease pencil as previously described (Spertini, O., et al., J. Immunol., 147:2565, 1991), and activated for 6-8 hours at […] with 200 U/ml of human recombinant TNFα (Biogen Res. Corp., Cambridge, Mass.). Human PMN (2×10^6) were allowed to adhere to these endothelial monolayers for 30 min at 4° C. under static (stationary platform; upper panel) and non-static (rotating platform, 64 r.p.m.; lower panel) conditions. To determine adhesion blocking activity, PMN were incubated in 5% FBS in RPMI 1640 alone or containing inositol (0.5 mM), InsP6 (0.5 mM), or anti-L-selectin monoclonal antibody LAM 1.3 (10 μg/ml), for 30 min or ice prior to their addition to activated endothelial monolayers. In some experimental wells, endothelial monolayers were incubated with anti E-selectin monoclonal antibody, H18/7, for 30 min prior to addition of PMN. After washing to remove unbound PMN, cultures were fixed in PBS containing 2.5% glutaraldehyde and adherent PMN were counted microscopically. The data represent the mean ±s.e.m. of three separate experiments. Unblocked PMN adhesion to activated endothelial monolayers under static and non-static conditions ranged from 1800 to 2400 cells/mm^2. […]
# [3] = tested on: PMN recovered in broncho-alveolar lavage fluid; experiment: Lung inflammation by intratracheal instillation of endotoxin, PMN in broncho-alveolar lavage fluid; type: in vivo; settings: rat, i.v. at 2 and 4 hours, 40 μmol/kg total, at 6 hours, 2 experiments
# Description: (§3) In the first model, mice were given intraperitoneal (i.p.) injections of 3% thioglycollate broth (FIG. 4, left panel) which results in an accumulation of PMN, the early phase of which is thought to depend in large part on L-(Lewinsohn, D. M., et al., J. Immunol., 138:4313, 1987; Watson, S. R., et al., Nature, 349:164, 1991), and P-selectin (Mulligan, M. S., et al., J. Clin. Invest., 90:1600, 1992). […] In a rat model of lung inflammation involving intratracheal instillation of endotoxin (Ulich, T. R., et al., Am. J. Pathol, 138:1485, 1991), InsP6 (i.v. injections at 2 and 4 hours, 40 μmol/kg total) reduced the number of PMN recovered in broncho-alveolar lavage fluid at 6 hours (59±8% inhibition, 2 experiments). The number of peripheral blood PMN was not modified by InsP6 treatment.
# peripheral blood PMN = experiment: Number of peripheral blood PMN; settings: in vivo
# Description: as §3
# [4] = mice and rats, high-dose (^18 600 μmol/kg), rate 60 μmol/kg/min or higher; cited from earlier work
# hemoglobin = settings: in vitro; cited from earlier work
# neutrophils = settings: cited from earlier work
smiles,measurement,setting,value
"O=P(O)(O)O[C@H]1[C@H](OP(=O)(O)O)[C@@H](OP(=O)(O)O)[C@H](OP(=O)(O)O)[C@@H](OP(=O)(O)O)[C@H]1OP(=O)(O)O [InsP6, myo-inositol hexakisphosphate]",LS 180 adhesion to E-selectin-Ig,[1],but not with E-selectin-lg
same,inhibition of LS 180 cell adhesion to L-COS,L-selectin (L-COS),81±13%
same,inhibition of LS 180 cell adhesion to P-COS,P-selectin (P-COS),95±5%
same,inhibition of LS 180 cell adhesion to E-COS,E-selectin (E-COS),< 5%
same,"PMN adhesion to TNF-activated endothelial cells, non-static","[2]; non-static conditions (rotation-induced shear stress, 64 r.p.m.)",blocked the adhesion of PMN
same,"PMN adhesion to TNF-activated endothelial cells, static",[2]; static conditions,little or no effect
same,inhibition of PMN recovered in broncho-alveolar lavage fluid,[3],59±8%
same,number of peripheral blood PMN,peripheral blood PMN,not modified
same,"acute toxic effects, i.v. infusion",[4],acute toxic effects
same,allosteric regulation of mammalian hemoglobin,hemoglobin,effective allosteric regulator of mammalian hemoglobin in vitro
same,effect on neutrophil responses to activating stimuli,neutrophils,enhance their responses to activating stimuli
